Experimental findings from patent US9650325B2, “Compound, preparing method thereof, and use thereof as inhibitors of histone demethylase” (SNU R&DB FOUNDATION, priority 2013, dated 2017) are described below.

One data set relates to KDM4. Kind of data set: Immunoblotting of histone from tripartin-treated HeLa cell line: KDM4 inhibitory activity (H3K9me3). Conditions: 10 μM, 24 hours. The format is cell-based, human. As to the method: (§1) HeLa cell line, which is a uterine cervical cancer cell line, was treated with tripartin and then histone was extracted from the tripartin-treated HeLa cell. A histone methylation antibody which may verify activity of the KDM was analyzed by immunoblotting to measure the KDM inhibiting effect.
(§2) 0.1% (w/v) DMSO (control group), or 0.1% (w/v) DMSO and 10 μM tripartin (experimental group) was added to the HeLa cell line, which was then incubated at 37° C. for 24 hours. Subsequently, proteins were extracted from the HeLa cell line, and the extracted proteins underwent electrophoresis with 15% SDS-polyacrylamide. Anti-histone H3 antibody (MILLIPORE), anti-H3K9me3 antibody (MILLIPORE), anti-H3K9me2 antibody (MILLIPORE), anti-H3K3me1 antibody (MILLIPORE), anti-H3K27me3 antibody (MILLIPORE), anti-H3K4me3 antibody (MILLIPORE), anti-H3K36me3 antibody (MILLIPORE), anti-H3K79me2 antibody (MILLIPORE), and anti-H3ace antibody (MILLIPORE) were used to perform immunoblotting. […] Herein, H”, “K”, “me”, and “ace” refer to histone, lysine (K), methylation, and acetylation, respectively. The number next to “H” refers to a histone number, the number next to “K” refers to the histone amino acid number, and the number next to “me” refers to the number of methylation. For example, “H3K9me3” refers to histone H3 with a tri-methylated lysine in the ninth position. […]
In general terms: In western blotting, separated proteins are transferred to a membrane and probed.

The next data set has as its system KDM3. Kind of data set: Immunoblotting of histone from tripartin-treated HeLa cell line: KDM3 inhibitory activity (H3K9me2/1). Conditions: 10 μM, 24 hours, vs DMSO control. It counts as cell-based, human. Here is the method:
as §1
(§3) 0.1% (w/v) DMSO (control group), or 0.1% (w/v) DMSO and 10 μM tripartin (experimental group) was added to the HeLa cell line, which was then incubated at 37° C. for 24 hours. Subsequently, proteins were extracted from the HeLa cell line, and the extracted proteins underwent electrophoresis with 15% SDS-polyacrylamide. Anti-histone H3 antibody (MILLIPORE), anti-H3K9me3 antibody (MILLIPORE), anti-H3K9me2 antibody (MILLIPORE), anti-H3K3me1 antibody (MILLIPORE), anti-H3K27me3 antibody (MILLIPORE), anti-H3K4me3 antibody (MILLIPORE), anti-H3K36me3 antibody (MILLIPORE), anti-H3K79me2 antibody (MILLIPORE), and anti-H3ace antibody (MILLIPORE) were used to perform immunoblotting. […] Herein, H”, “K”, “me”, and “ace” refer to histone, lysine (K), methylation, and acetylation, respectively. The number next to “H” refers to a histone number, the number next to “K” refers to the histone amino acid number, and the number next to “me” refers to the number of methylation. For example, “H3K9me3” refers to histone H3 with a tri-methylated lysine in the ninth position.
(§4) KDM3, KDM4, KDM6, KDM5, and KDM2/7 demethylate H3K9me2/1, H3K9me3, H3K27, H3K4, and H3K36, respectively.

A further data set has as its system KDM6. The experiment in a line: Immunoblotting of histone from tripartin-treated HeLa cell line: KDM6 inhibitory activity (H3K27me3). The format is cell-based, human. Conditions: 10 μM, 24 hours, vs DMSO control. Here is the method:
as §1, §2

The next data set relates to KDM5. The experiment in a line: Immunoblotting of histone from tripartin-treated HeLa cell line: KDM5 inhibitory activity (H3K4me3). The format is cell-based, human. Conditions: 10 μM, 24 hours, vs DMSO control. As to the method:
as §1, §2

In a further data set the test system is KDM2/7. The experiment in a line: Immunoblotting of histone from tripartin-treated HeLa cell line: KDM2/7 inhibitory activity (H3K36me3). The format is cell-based, human. Conditions: 10 μM, 24 hours, vs DMSO control. Here is the method: as §1, §2
A further data set concerns HeLa cell line. Kind of data set: Immunoblotting of histone from tripartin-treated HeLa cell line: other histone marks (H3, H3K79me2, H3ace). It counts as cell-based, human. Conditions: 10 μM, 37° C., 24 hours, vs DMSO control. As to the method:
as §1, §3, §4

The nature of data set [1]: Analysis of physicochemical properties of tripartin.

Consider `O=C1C[C@@](O)(C(Cl)Cl)c2c(O)cc(O)cc21` [tripartin], for which the “H3K9me3 level (immunoblotting)” value in the data set with KDM4 (37° C., vs DMSO control) is given as “increased significantly”. Besides, the KDM4 inhibitory effect result with KDM4 (in comparison to the DMSO control group) is “inhibitory effect”. In the data set with KDM3 (37° C.), the “H3K9me1 level (immunoblotting)” value is listed as “not increased” and the “H3K9me2 level (immunoblotting)” value is recorded as “not increased”. Moreover, the KDM3 inhibitory effect entry in the data set with KDM3 is “No inhibitory effect”. In the data set on KDM6 (37° C.), the “H3K27me3 level (immunoblotting)” value was “not increased”. In the data set with KDM6, the KDM6 inhibitory effect result is given as “No inhibitory effect”. In the data set on KDM5 (37° C.), the “H3K4me3 level (immunoblotting)” value is given as “not increased”. Also, the KDM5 inhibitory effect result with KDM5 is “No inhibitory effect”. The “H3K36me3 level (immunoblotting)” value in the data set on KDM2/7 (37° C.) is “not increased”. For the same compound, the KDM2/7 inhibitory effect entry in the data set on KDM2/7 is on record as “No inhibitory effect”. Moreover, in the data set on HeLa cell line, the “H3K79me2 level (immunoblotting)” value is recorded as “not increased”, the “H3ace level (immunoblotting)” value is listed as “not increased” and the “H3 level (immunoblotting)” value is reported as “not increased”. The Solubility result in data set [1] (intermediate organic solvent such as methanol and acetone) is listed as “well dissolved”. In data set [1] (room temperature), the “Stability of the solid” value was “stable at room temperature”.
